Measured values: patent US20230390315A1, “COMPOSITIONS AND METHODS FOR TREATING ISCHEMIC CONDITIONS” (The Regents of the University of California, priority 2020, published 2023)

Key:
[1] = system: protein glycosylation in BCECs; assay: N-glycan, monosaccharide, sialic acid and O-glycan analysis of BCECs; assay type: cell-based, bovine
Procedure: As soon as BCECs reached about 80% confluency, they were washed twice with phosphate buffered saline (PBS, Sigma) and harvested by scraping. The cells were pelleted by centrifugation at 300 g for 3 mins and washed once with cold PBS. Cells were homogenized and total protein was measured. All subsequent analysis was based on known protein amount.
N-linked glycans were removed from glycoprotein samples using PNGase-F kit (New England BioLabs, P0705S). Briefly, 300 μg of protein sample was reconstituted in 180 μl UltraPure water. 20 μl of 10× denaturing buffer was added and boiled using 100° C. water bath for 14 mins. Samples were cooled down to room temperature and centrifuged at 2700 g for 1 min. Subsequently, 50 μl 10×NP-40 was added and samples were kept at room temperature for 30 mins with vortexing at 5 min interval, followed by adding 25 μL of 10×reaction buffer and mixing thoroughly. 5 μl PNGaseF (2500 U) was then added to the samples and mixed gently. Samples were incubated at 37° C. for 16 hrs. Released N-glycans were purified using solid phase extraction method. Briefly, N-glycans were purified by passing the reaction mixture sequentially over pre-conditioned Sep-Pak C18 1 cc cartridge (Waters) and HyperSep PGC ([…]) cartridge (25 mg, 1 ml Thermo Scientific). The cartridge was washed with 4 ml of water and the PGC alone was washed with additional 1 ml of water. N-glycans bound to PGC were eluted using 30% acetonitrile containing 0.1% TFA in water. Finally, purified N-glycans were lyophilized and labeled with 2-AB. Briefly, samples were dissolved in 10 μl solution of 0.44 M 2-AB (2-Amino benzamide) in 35% acetic acid in DMSO containing 1M sodium cyanoborohydride. The samples were incubated at 65° C. for 2.5 hrs. The 2-AB labeled glycans were purified using GlycoClean S cartridge (GLYKO) following their glycan clean-up protocol. Excess reagent was removed from the samples using Glycoclean S-cartridge (Prozyme) and labelled glycans were dried using SpeedVac and stored at −20° C. Profiling of 2-AB labeled glycans was obtained using Dionex CarboPac PA1 (4×250 mm) anion exchange column along with a guard column (4×50 mm) at flow rate of 1 ml/min. Glycans were separated in 100 mM sodium hydroxide with a sodium acetate gradient of 0-250 mM in 0-75 minutes. The data was collected using the Dionex ICS-3000 HPLC system with Ultimate 3000 fluorescence detector (Dionex) set at λex 330 nm at tem 420 nm with sensitivity 7. The data was processed using Chromeleon software (Thermo Scientific).
Monosaccharide composition analysis was done using HPAEC-PAD (Thermo-Dionex ICS3000) and nmole amount of each monosaccharide present in 25 μg of protein was calculated. Samples were hydrolyzed using 2 N trifluoroacetic acid (TFA) at 100° C. for 4 hrs. Followed by removal of acid using dry nitrogen flush. To ensure complete removal of acid, samples were co-evaporated twice with 100 μl of 50% isopropyl alcohol (IPA). Finally, the samples were dissolved in Milli-Q water and injected on HPAEC-PAD. Monosaccharide profile was done using Dionex CarboPac™ PA1 column (250 mm×4 mm; with 50 mm×4 mm guard column). […] All neutral and amino sugars were identified and quantified by comparing with authentic monosaccharide standard mixture consisting of L-fucose, D-galactosamine, D-glucosamine, D-galactose, D-glucose and D-mannose.
Mild acid hydrolysis was used to release sialic acid. […] Known amount of standard Neu5Ac was used to quantify amount of sialic acid in samples. […]

4T1 cells = assay: 4T1 proliferation assay (MTS); assay type: cell-based, mouse
skin wound = assay: Skin wound healing model (splinted wound); assay type: in vivo, mouse; conditions: day 4; topical 20 μg daily
Description: The model has been previously described. Briefly, C57BL/6 female mice (8-10 weeks old) were obtained from Jackson labs (Sacramento, CA). A fresh, full-thickness punch wound (4 mm diameter) using a punch (Acu Punch, Acuderm inc. Ft. Lauderdale, FL) splinted with a sterile neoprene ring (6-mm outer diameter and 4-mm inner diameter), fastened with 5-6 sutures (4-0 nylon) under the influence of Isoflurane was created on the back of the animal in a Class II Biological Safety Cabinet. For all surgical procedures, sterile technique was followed. Buprenorphine was given subcutaneously prior to awakening from anesthesia for anticipated pain. Mice were monitored until fully awake and were housed individually to minimize damage/biting/fighting to the surgical site. […] Treatment agents were prepared in PBS, sterile-filtered and 25 μl solution was applied daily directly to a wound bed for the first 4-5 days under the influence of Isoflurane, followed by daily observation. Wound closure was monitored by regular imaging and the wound area was quantified using ImageJ (National Institutes of Health, Bethesda, MD, USA). […] Epithelial gap was measured histomorphometrically using AxioVision LE Rel.4.4 software. […] Small vessels stained positive for CD31 were counted microscopically on 10 fields (20×) taken around the wound.

## N[C@H](C=O)[C@@H](O)[C@H](O)[C@H](O)CO [ManN, 2-Amino-2-deoxy-D-mannose]
[1]
  fucose (8 hours), mannose (12 hours), galactose (24 hours) and Neu5Ac (8 and 24 hours) content vs untreated control: significant decrease
  incorporation of ManN in N-glycans: No incorporation of ManN was detected
[1]; 40 uM ManN
  Man-5 and Man-7 content: significant early phase accumulation
  Man-6, Man-8 and Man-9 in total oligomannose N-glycan content vs untreated control: significant time-dependent reduction
[1]; 40 uM ManN, MALDI-Tof
  O-glycosylation: overall decrease in O-glycosylation
4T1 cells
  growth of 4T1: did not promote growth
4T1 cells; at 5 mM
  toxicity on 4T1 cells: significant toxicity
Skin wound
  average closure of the wound: 75.6%
